Reference: ChEMBL document CHEMBL4321797, “New Approaches to Cancer Therapy: Combining Fatty Acid Amide Hydrolase (FAAH) Inhibition with Peroxisome Proliferator-Activated Receptors (PPARs) Activation” (J Med Chem, 2019)

What was measured:
[1] = target: T1, Fatty-acid amide hydrolase 1 (Homo sapiens, UniProt O00519); test: Inhibition of FAAH (unknown origin)
T1 sequence (O00519 whole entry): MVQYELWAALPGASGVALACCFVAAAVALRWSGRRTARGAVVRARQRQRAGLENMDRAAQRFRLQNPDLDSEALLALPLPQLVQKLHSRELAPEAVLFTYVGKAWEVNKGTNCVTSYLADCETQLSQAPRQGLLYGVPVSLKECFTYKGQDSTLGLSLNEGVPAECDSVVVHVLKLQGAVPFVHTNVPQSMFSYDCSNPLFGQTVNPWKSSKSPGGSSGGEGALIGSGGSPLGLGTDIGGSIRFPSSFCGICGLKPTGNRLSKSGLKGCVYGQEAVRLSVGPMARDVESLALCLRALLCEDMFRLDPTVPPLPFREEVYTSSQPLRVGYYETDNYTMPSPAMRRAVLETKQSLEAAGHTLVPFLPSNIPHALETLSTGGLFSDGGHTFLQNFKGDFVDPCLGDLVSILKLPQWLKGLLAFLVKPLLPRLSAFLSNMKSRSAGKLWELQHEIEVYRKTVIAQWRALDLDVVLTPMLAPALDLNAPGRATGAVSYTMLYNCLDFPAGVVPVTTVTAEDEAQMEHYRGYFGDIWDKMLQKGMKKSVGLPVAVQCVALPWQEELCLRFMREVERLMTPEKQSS

[2] = target: T1, Fatty-acid amide hydrolase 1; test: Inhibition of recombinant human C-terminal FLAG-tagged FAAH expressed in HEK293T cells preincubated for 4 hrs followed by addition of FP-TAMRA probe and measured after 20 mins by SDS-PAGE based fluorescence assay; assay type: cell-based

IC50 [2]	SMILES	IC50 [1]
–	CCCCC/C=C\C/C=C\C/C=C\C/C=C\CCCC(=O)NCCc1c[nH]c2ccc(O)cc12	5.6 µM
0.049 µM	CN(C(=O)n1cnc(-c2ccc[n+]([O-])c2)c1)C1CCCCC1	–
